Key:
[1] = target: CK1δ (Homo sapiens (Human), UniProt P48730); experiment: CK1δ kinase assay (Caliper LABCHIP electrophoretic separation of fluoresceinated peptide substrate and product); type: biochemical; settings: 200 pM enzyme, 50 μM ATP, 22 hours at room temperature
Procedure, shortened: (§1)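 IC50 values were obtained by non-linear regression from eleven-concentration titrations. The kinase reactions were incubated for 22 hours at room temperature before termination with 35 mM EDTA.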

[2] = target: CK1ε (Homo sapiens (Human), UniProt P49674); experiment: CK1ε kinase assay (Caliper LABCHIP electrophoretic separation of fluoresceinated peptide substrate and product); type: biochemical; settings: 200 pM enzyme, 50 μM ATP, 22 hours at room temperature
CK1ε, sequence (P49674 whole entry): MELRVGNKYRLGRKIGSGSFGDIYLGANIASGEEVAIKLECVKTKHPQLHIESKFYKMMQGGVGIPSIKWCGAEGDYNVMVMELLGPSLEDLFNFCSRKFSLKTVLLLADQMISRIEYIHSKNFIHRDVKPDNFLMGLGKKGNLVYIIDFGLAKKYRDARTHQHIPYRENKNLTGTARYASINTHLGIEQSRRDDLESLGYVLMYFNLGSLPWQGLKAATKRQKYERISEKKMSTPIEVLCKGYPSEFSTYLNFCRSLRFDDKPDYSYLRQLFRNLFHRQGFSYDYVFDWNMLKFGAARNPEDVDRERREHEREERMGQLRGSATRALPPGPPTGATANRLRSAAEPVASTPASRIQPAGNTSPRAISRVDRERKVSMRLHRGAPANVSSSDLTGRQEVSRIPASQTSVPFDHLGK
Procedure, shortened: as §1

CK1δ, sequence (P48730 whole entry): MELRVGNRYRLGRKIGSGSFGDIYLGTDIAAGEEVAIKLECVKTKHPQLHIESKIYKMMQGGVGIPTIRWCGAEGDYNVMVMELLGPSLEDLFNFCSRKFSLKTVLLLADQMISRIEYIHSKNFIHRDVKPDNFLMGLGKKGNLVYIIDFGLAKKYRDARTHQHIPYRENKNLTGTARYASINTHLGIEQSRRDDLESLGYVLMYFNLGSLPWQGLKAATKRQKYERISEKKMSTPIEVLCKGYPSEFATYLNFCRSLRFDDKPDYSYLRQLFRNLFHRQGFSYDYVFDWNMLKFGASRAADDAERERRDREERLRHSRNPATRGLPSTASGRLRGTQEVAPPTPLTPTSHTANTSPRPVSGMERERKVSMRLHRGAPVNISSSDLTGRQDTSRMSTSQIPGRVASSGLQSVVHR

| IC50 [1] [nM] | IC50 [2] [nM] | SMILES |
| --- | --- | --- |
| 0.314 | 3.17 | Cn1cc(Cn2cnc(-c3ccc(F)cc3)c2-c2ccc3nc(NC(=O)c4ccnc(F)c4)cn3n2)cn1 [Compound 259, 2-fluoro-N-(6-(4-(4-fluorophenyl)-1-((1-methyl-1H-pyrazol-4-yl)methyl)-1H-imidazol-5-yl)imidazo[1,2-b]pyridazin-2-yl) isonicotinamide] |
| 0.403 | 14.8 | O=C(Nc1cn2nc(-c3c(-c4ccc(F)cc4)ncn3CCN3CCCCC3=O)ccc2n1)c1ccnc(F)c1 [Compound 261, 2-fluoro-N-(6-(4-(4-fluorophenyl)-1-(2-(2-oxopiperidin-1-yl)ethyl)-1H-imidazol-5-yl)imidazo[1,2-b]pyridazin-2-yl)isonicotinamide] |
| 0.331 | 3.48 | O=C(Nc1cn2nc(-c3c(-c4ccc(F)cc4)ncn3C3CC(F)(F)C3)ccc2n1)c1ccnc(F)c1 [Compound 262, N-(6-(1-(3,3-difluorocyclobutyl)-4-(4-fluorophenyl)-1H-imidazol-5-yl)imidazo[1,2-b]pyridazin-2-yl)-2-fluoroisonicotinamide] |
| 0.436 | 5.4 | O=C(Nc1cn2nc(-c3c(-c4ccc(F)cc4)ncn3CCCn3ccnc3)ccc2n1)c1ccnc(F)c1 [Compound 263, 2-fluoro-N-(6-(4-(4-fluorophenyl)-1-(3-(1H-imidazol-1-yl)propyl)-1H-imidazol-5-yl)imidazo[1,2-b]pyridazin-2-yl)isonicotinamide] |
| 41.5 | 156 | CC(C)(C)c1cc(Cn2cnc(-c3ccc(F)cc3)c2-c2ccc3nc(NC(=O)c4ccnc(F)c4)cn3n2)n[nH]1 [Compound 264] |
| 0.147 | 0.719 | O=C(Nc1cn2nc(-c3c(-c4ccc(F)cc4)ncn3CCc3cn[nH]c3)ccc2n1)c1ccnc(F)c1 [Compound 265] |
| 0.416 | 14.1 | O=C(Nc1cn2nc(-c3c(-c4ccc(F)cc4)ncn3CC(=O)N3CCOCC3)ccc2n1)c1ccnc(F)c1 [Compound 266, 2-fluoro-N-(6-(4-(4-fluorophenyl)-1-(2-(4-morpholinyl)-2-oxoethyl)-1H-imidazol-5-yl)imidazo[1,2-b]pyridazin-2-yl)isonicotinamide] |
| 0.287 | 1.77 | O=C1CN(CCn2cnc(-c3ccc(F)cc3)c2-c2ccc3nc(NC(=O)c4ccnc(F)c4)cn3n2)CCN1 [Compound 267, 2-fluoro-N-(6-(4-(4-fluorophenyl)-1-(2-(3-oxo-1-piperazinyl)ethyl)-1H-imidazol-5-yl)imidazo[1,2-b]pyridazin-2-yl)isonicotinamide] |
| 0.419 | 7.57 | NC(=O)Cn1cnc(-c2ccc(F)cc2)c1-c1ccc2nc(NC(=O)c3ccnc(F)c3)cn2n1 [Compound 268, N-(6-(1-(2-amino-2-oxoethyl)-4-(4-fluorophenyl)-1H-imidazol-5-yl)imidazo[1,2-b]pyridazin-2-yl)-2-fluoroisonicotinamide] |
| 1.08 | 9.39 | Cn1ccc(Cn2cnc(-c3ccc(F)cc3)c2-c2ccc3nc(NC(=O)c4ccnc(F)c4)cn3n2)n1 [Compound 269, 2-fluoro-N-(6-(4-(4-fluorophenyl)-1-((1-methyl-1H-pyrazol-3-yl)methyl)-1H-imidazol-5-yl)imidazo[1,2-b]pyridazin-2-yl) isonicotinamide] |
| 9.45 | 72.5 | O=C(Nc1cn2nc(-c3c(-c4ccc(F)cc4)ncn3Cc3cc(C4CC4)[nH]n3)ccc2n1)c1ccnc(F)c1 [Compound 270, N-(6-(1-((5-cyclopropyl-1H-pyrazol-3-yl)methyl)-4-(4-fluorophenyl)-1H-imidazol-5-yl)imidazo[1,2-b]pyridazin-2-yl)-2-fluoroiso-nicotinamide] |
| 0.897 | 5.97 | Cc1nccn1CCCn1cnc(-c2ccc(F)cc2)c1-c1ccc2nc(NC(=O)c3ccnc(F)c3)cn2n1 [Compound 271, 2-fluoro-N-(6-(4-(4-fluorophenyl)-1-(3-(2-methyl-1H-imidazol-1-yl)propyl)-1H-imidazol-5-yl)imidazo[1,2-b]pyridazin-2-yl) isonicotinamide] |

— patent US9556179B2 (BRISTOL-MYERS SQUIBB COMPANY, priority 2012, dated 2017)
